These results are taken from patent US9279010B2, “Treatment of inflammatory bowel diseases with mammal beta defensins” (Defensin Therapeutics ApS, priority 2008, dated 2016).

The test system of data set [1] is human PBMC. Description: IL-23 in supernatants of human PBMC, ELISA (Example 6, Table 25). It is filed as cell-based. Here is the method: (§1) Peripheral blood was drawn from healthy volunteers (with approval from the relevant ethical committee in Denmark). Heparinized blood was diluted 1/1 v/v with RPMI and were subjected to Ficoll density centrifugation within 2 h of drawing. Plasma was collected from the top from individual donors and was kept on ice until it was used at 2% in the culture medium (autologous culture medium). Isolated PBMC were resuspended in autologous culture medium and seeded in 96-well culture plates with 255.000 cells per well in a total of 200 μl. […] The concentrations used for stimulation were optimized on 3 different donors in initial experiments, for LPS two different concentrations were used to be sure to be on a cytokine level that is possible to modulate. In some experiments PBMC were treated with Dexamethason and Indomethacin alone and together with LPS or LTA as a control on downregulation of inflammatory cytokines. The supernatants were collected after incubation at 37° C. for 24 hours, and stored at −80° C. until cytokine measurement. Viability was measured by Alamar Blue (Biosource, DALL 1100) in all experiments and in some cases also by MTS (Promega) according to manufacturer's instruction and was in some experiments also judged by counting of the cells by a Nucleocounter.
Example 6 was carried out essentially as described in Example 4 for human PBMCs; however, the readout was IL-23 instead of TNF, IL-1β and IL-10. Moreover, the effect of rhBD2 on human monocyte-derived dendritic cells was also investigated.
Cell culture supernatants were collected and stored at −80° C. Amounts of IL-23 was measured by standard sandwich ELISA using commercially available antibodies and standards according to the manufacturer's protocols (eBioscience).
All experiments were performed at least twice, with representative results shown. The data presented are expressed as mean plus/minus standard deviation […]. […] Differences were considered significant for p<0.05.
(In general: In an ELISA, binding on a coated surface is turned into a signal by an enzyme label.)

For data set [2], the system named is human peripheral blood mononuclear cells (PBMC). Description: IL-1β production from LPS-treated human PBMC, CBA (Example 5, Table 23). The format is cell-based. As to the method:
as §1
(§2) Cytokine production in supernatants was measured by flow cytometry with a human inflammation cytometric bead array (CBA) according to manufacturer's instructions (BD) on a FACSarray flow cytometer. The following cytokines were measured: IL-8, IL-1β, IL-10, TNF, IL-12 p70, IL-6. In some experiments, cytokines were measured by ELISA kits from R&D systems (IL-10, TNF-α, IL-1β) according to the manufacturer′ instruction.
(§3) Example 5 was carried out essentially as described in Example 4.
(§4) In each table, all samples were tested on the same donor. SD means standard deviation.

For data set [3] the test system is unchanged. Description: IL-10 production from LPS-treated human PBMC, CBA (Example 5). The format is cell-based. The following applies: Table 22. Here is the method: as §1, §2, §4
Data set [4] shares this test system. Description: TNF production from LPS-treated human PBMC, CBA (Example 7, Table 26). The format is cell-based. Here is the method: as §1, §2
(§5) Example 7 was carried out essentially as described in Example 4 for human PBMCs. […] The amino acid sequence of mBD3 is shown in SEQ ID NO:6. Mouse PBMCs were prepared as described below.

For data set [5] the test system is unchanged. Description: TNF production from LPS-treated human PBMC, CBA (Example 5). To be noted: Table 21. The format is cell-based. As to the method:
as §1, §2, §3, §4

Data set [6] relates to mouse peripheral blood mononuclear cells (PBMC). Description: TNF production from LPS-treated mouse PBMC, CBA (Example 7). It is filed as cell-based, mouse (NMRI). As to the method:
as §5
Mouse peripheral blood mononuclear cells were isolated from blood of ten NMRI mice. In short, heparinized blood was diluted 1/1 v/v with RPMI and subjected to Ficoll density centrifugation within 2 h of drawing. Plasma was collected from the top and discarded. Isolated PBMC were resuspended in culture medium (RPMI 1640 (Gibco, 42401) w/ 1% penicillin and streptomycin and 1% L-Glutamine) and seeded in 96-well culture plates with 115.500 cells per well in a total of 200 μl. […] The supernatants were collected after incubation at 37° C. for 24 hours, and stored at −80° C. until cytokine measurement.
Cytokine production in supernatants was measured by flow cytometry with a mouse inflammation cytometric bead array (CBA) according to manufacturer's instructions (BD) on a FACSarray flow cytometer.

In data set [7] the test system is human PBMC. Briefly: Toxicity to human PBMC (Example 5). The format is cell-based. As to the method:
as §1, §3

[8] abbreviates: LPS 0.6 ng/ml, concentration of test compound not given.
Where [9] appears, read: LPS 20 ng/ml, concentration of test compound not given.
[10] abbreviates: concentration not given, LPS 0.6 ng/ml.
The mark [11] stands for this setting: concentration not given, LPS 20 ng/ml.
The mark [12] stands for this setting: concentration not given, Medium.
[13] abbreviates: LPS 0.6 ng/ml, test compound 1 μg/ml.
The mark [14] stands for this setting: LPS 20 ng/ml, test compound 1 μg/ml.
The mark [15] stands for this setting: Medium (no LPS), test compound 1 μg/ml.
[16] abbreviates: LPS 0.6 ng/ml, test compound 10 μg/ml.
[17] abbreviates: LPS 0.6 ng/ml, test compound 40 μg/ml.
[18] abbreviates: LPS 20 ng/ml, test compound 10 μg/ml.
The mark [19] stands for this setting: LPS 20 ng/ml, test compound 40 μg/ml.
Setting [20] is: Medium (no LPS), test compound 10 μg/ml.

Where no end group is shown, it is not given here.

Take `C[C@@H]1C[C@H]2[C@@H]3CCC4=CC(=O)C=C[C@]4(C)[C@@]3(F)[C@@H](O)C[C@]2(C)[C@@]1(O)C(=O)CO` [Dexamethasone]: the IL-23 pg/ml in data set [1] (Control (medium), test compound 3.5 ng/ml) came to 222 pg/mL; in data set [1] (LTA 5 μg/ml, test compound 3.5 ng/ml) it was 223 pg/mL.

With “Infliximab: anti-inflammatory compound, positive control on downregulation of TNF [reference compound]”, the IL-1β came out at 636 pg/mL in data set [2] (setting [8]); 2704 pg/mL in data set [2] (setting [9]); 0 pg/mL in data set [2] (Medium (no LPS), concentration of test compound not given). Also, the “IL-1β % of control” value is on record as 86% in data set [2] (setting [8]) and 106% in data set [2] (setting [9]). Further, the IL-10 in data set [3] (setting [10]) was 46 pg/mL; in data set [3] (setting [11]), 63 pg/mL; in data set [3] (setting [12]) it was 0 pg/mL. The results for the “IL-10 % of control” value in data set [3] (setting [10]) and in data set [3] (setting [11]) were 69% and 56%, respectively. For the same compound, the IL-23 pg/ml was found to be 227 pg/mL in data set [1] (Control (medium), test compound 1 μg/ml); 356 pg/mL in data set [1] (setting [13]); 373 pg/mL in data set [1] (setting [14]); 349 pg/mL in data set [1] (LTA 5 μg/ml, test compound 1 μg/ml). Further, the TNF came out at 1 pg/mL in data set [4] (setting [14]); 0 pg/mL in data set [4] (setting [15]); 0 pg/mL in data set [5] (setting [10]); 0 pg/mL in data set [5] (setting [11]); 0 pg/mL in data set [5] (setting [12]); 2119 pg/mL in data set [6] (1 μg/ml, LPS 20 ng/ml). Besides, the TNF in data set [6] (1 μg/ml, Medium) was found to be 530 pg/mL. Besides, the “TNF % of control” value in data set [5] (setting [10]) and in data set [5] (setting [11]) was 0% each time.

Turning to “hBD1: human beta defensin 1 (SEQ ID NO:1), prepared using chemical synthesis (DHYNCVSSGGQCLYSACPIFTKIQGTCYRGKAKCCK; not fully specified; cysteine pairing not given here; listed as Homo sapiens)”, the IL-1β in data set [2] (setting [13]) is 512 pg/mL; in data set [2] (setting [16]), 401 pg/mL; in data set [2] (setting [17]) it was 302 pg/mL; in data set [2] (setting [14]), 2087 pg/mL; in data set [2] (setting [18]), 1913 pg/mL; in data set [2] (setting [19]) it was 1599 pg/mL. Also, the IL-1β in data set [2] (setting [15]) was found to be 0 pg/mL; in data set [2] (setting [20]), 0 pg/mL; in data set [2] (Medium (no LPS), test compound 40 μg/ml), 0 pg/mL. In addition, the “IL-1β % of control” value in data set [2] (setting [13]) is given as 69%; in data set [2] (setting [16]), 54%; in data set [2] (setting [17]) it was 41%; in data set [2] (setting [14]), 82%; in data set [2] (setting [18]), 75%; in data set [2] (setting [19]), 63%. Also, the IL-10 was 71 pg/mL in data set [3] (1 μg/ml, LPS 0.6 ng/ml); 95 pg/mL in data set [3] (1 μg/ml, LPS 20 ng/ml); 0 pg/mL in data set [3] (1 μg/ml, Medium); 76 pg/mL in data set [3] (10 μg/ml, LPS 0.6 ng/ml); 100 pg/mL in data set [3] (10 μg/ml, LPS 20 ng/ml); 0 pg/mL in data set [3] (10 μg/ml, Medium). Besides, the IL-10 in data set [3] (40 μg/ml, LPS 0.6 ng/ml) is 69 pg/mL; in data set [3] (40 μg/ml, LPS 20 ng/ml), 113 pg/mL; in data set [3] (40 μg/ml, Medium), 0 pg/mL. Moreover, the “IL-10 % of control” value in data set [3] (1 μg/ml, LPS 0.6 ng/ml) is on record as 108%; in data set [3] (1 μg/ml, LPS 20 ng/ml), 85%; in data set [3] (10 μg/ml, LPS 0.6 ng/ml), 114%; in data set [3] (10 μg/ml, LPS 20 ng/ml) it was 90%; in data set [3] (40 μg/ml, LPS 0.6 ng/ml), 104%; in data set [3] (40 μg/ml, LPS 20 ng/ml), 102%. In addition, the TNF in data set [5] (1 μg/ml, LPS 0.6 ng/ml) came out at 474 pg/mL; in data set [5] (1 μg/ml, LPS 20 ng/ml), 1395 pg/mL; in data set [5] (1 μg/ml, Medium) it was 1 pg/mL; in data set [5] (10 μg/ml, LPS 0.6 ng/ml), 203 pg/mL; in data set [5] (10 μg/ml, LPS 20 ng/ml), 1311 pg/mL; in data set [5] (10 μg/ml, Medium), 0 pg/mL. Further, the TNF in data set [5] (40 μg/ml, LPS 0.6 ng/ml) is 91 pg/mL; in data set [5] (40 μg/ml, LPS 20 ng/ml), 999 pg/mL; in data set [5] (40 μg/ml, Medium) it was 0 pg/mL. Further, the “TNF % of control” value in data set [5] (1 μg/ml, LPS 0.6 ng/ml) is reported as 65%; in data set [5] (1 μg/ml, LPS 20 ng/ml) it was 64%; in data set [5] (10 μg/ml, LPS 0.6 ng/ml), 28%; in data set [5] (10 μg/ml, LPS 20 ng/ml), 61%; in data set [5] (40 μg/ml, LPS 0.6 ng/ml), 13%; in data set [5] (40 μg/ml, LPS 20 ng/ml), 46%.

As for “hBD3: human beta defensin 3 (SEQ ID NO:3), prepared using chemical synthesis”, the IL-1β turned out to be 331 pg/mL in data set [2] (setting [13]), 568 pg/mL in data set [2] (setting [14]) and 0 pg/mL in data set [2] (setting [15]). The “IL-1β % of control” value is 45% in data set [2] (setting [13]) and 22% in data set [2] (setting [14]). Moreover, the IL-10 in data set [3] (1 μg/ml, LPS 0.6 ng/ml) amounted to 71 pg/mL; in data set [3] (1 μg/ml, Medium), 0 pg/mL. The “IL-10 % of control” value in data set [3] (1 μg/ml, LPS 0.6 ng/ml) worked out at 107%; in data set [3] (1 μg/ml, LPS 20 ng/ml), 137%. For the same compound, the TNF turned out to be 528 pg/mL in data set [5] (1 μg/ml, LPS 0.6 ng/ml); 451 pg/mL in data set [5] (1 μg/ml, LPS 20 ng/ml); 0 pg/mL in data set [5] (1 μg/ml, Medium). The “TNF % of control” value in data set [5] (1 μg/ml, LPS 0.6 ng/ml) is reported as 73%; in data set [5] (1 μg/ml, LPS 20 ng/ml), 21%. The “toxicity to the cells” value in data set [7] (10 μg/ml) and in data set [7] (40 μg/ml) was “toxic to the cells” throughout.

As for “mBD3: mouse beta defensin 3 (SEQ ID NO:6), prepared with the same protocol as hBD2 (KINNPVSCLRKGGRCWNRCIGNTRQIGSCGVPFLKCCKRK; mat_peptide (1)..(40); listed as Mus musculus)”, the TNF was 384 pg/mL in data set [4] (setting [14]); 51 pg/mL in data set [4] (setting [18]); 166 pg/mL in data set [4] (LPS 20 ng/ml, test compound 100 μg/ml); 2 pg/mL in data set [4] (setting [15]); 2 pg/mL in data set [4] (setting [20]); 39 pg/mL in data set [4] (Medium (no LPS), test compound 100 μg/ml). Besides, the TNF in data set [6] (1 μg/ml, LPS 20 ng/ml) is 1600 pg/mL; in data set [6] (1 μg/ml, Medium) it was 347 pg/mL; in data set [6] (10 μg/ml, LPS 20 ng/ml), 297 pg/mL; in data set [6] (10 μg/ml, Medium), 180 pg/mL; in data set [6] (100 μg/ml, LPS 20 ng/ml), 195 pg/mL; in data set [6] (100 μg/ml, Medium) it was 182 pg/mL. Moreover, the “secretion of TNF” value in data set [4] (human PBMCs (Table 26)) was “downregulating the secretion of TNF from human PBMCs to the same extend as hBD2 and dexamethason”.
